According to ChEMBL document CHEMBL1201862, “PubChem BioAssay data set” (2004):
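In this assay, cells in 96-well plates receive the compound at five concentrations for 48 hours. Endpoints are linearly interpolated between the surrounding concentrations. The concentration for 50% growth inhibition is given as GI50.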 Active and inactive are the calls of the source. Rule as the data show it: active = GI50 up to about 1.1 µM and inactive = higher.

How the values were obtained:
Test in all cases: inhibition of tumour cell growth, NCI panel, 48 h
[1] = test system: KM12
[2] = test system: OVCAR-5
[3] = test system: M14
[4] = test system: MDA-MB-231
[5] = test system: MOLT-4
[6] = test system: HT-29
[7] = test system: UACC-62
[8] = test system: Malme-3M
[9] = test system: A549
[10] = test system: SN12C
[11] = test system: OVCAR-3
[12] = test system: RXF 393
[13] = test system: HOP-92
[14] = test system: PC-3
[15] = test system: UACC-257
[16] = test system: IGROV-1
[17] = test system: HCT-116
[18] = test system: 786-0
[19] = test system: NCI-H460
[20] = test system: HCT-15
[21] = test system: SF-295
[22] = test system: SR
[23] = test system: BT-549
[24] = test system: OVCAR-4
[25] = test system: RPMI-8226
[26] = test system: SK-OV-3
[27] = test system: MCF7
[28] = test system: EKVX
[29] = test system: HL-60
[30] = test system: SK-MEL-28
[31] = test system: T47D
[32] = test system: NCI/ADR-RES
[33] = test system: CCRF-CEM
[34] = test system: SW-620
[35] = test system: SF-539
[36] = test system: SNB-19
[37] = test system: SF-268
[38] = test system: HCC 2998
[39] = test system: MDA-MB-435
[40] = test system: U-251
[41] = test system: NCI-H23
[42] = test system: OVCAR-8
[43] = test system: SNB-75
[44] = test system: DU-145
[45] = test system: ACHN
[46] = test system: UO-31
[47] = test system: A498
[48] = test system: HOP-62
[49] = test system: CAKI-1
[50] = test system: K562
[51] = test system: MDA-N
[52] = test system: SK-MEL-2
[53] = test system: NCI-H226
[54] = test system: COLO 205
[55] = test system: NCI-H522
[56] = test system: TK-10
[57] = test system: SK-MEL-5
[58] = test system: LOX IMVI

Compound: O=c1c2cc(-c3ccccc3)cnc2sn1-c1ccc(Oc2ccccc2)cc1
- GI50 [1]: 48.5 µM (inactive)
- GI50 [2]: 65.2 µM (inactive)
- GI50 [3]: 46.3 µM (inactive)
- GI50 [4]: 14.5 µM (inactive)
- GI50 [5]: 49.2 µM (inactive)
- GI50 [6]: 23.4 µM (inactive)
- GI50 [7]: 26.9 µM (inactive)
- GI50 [8]: 92.5 µM (inactive)
- GI50 [9]: 19.5 µM (inactive)
- GI50 [10]: 31.3 µM (inactive)
- GI50 [11]: 31.5 µM (inactive)
- GI50 [12]: 19.1 µM (inactive)
- GI50 [13]: 30.7 µM (inactive)
- GI50 [14]: 20.4 µM (inactive)
- GI50 [15]: 67 µM (inactive)
- GI50 [16]: 32.6 µM (inactive)
- GI50 [17]: 51.9 µM (inactive)
- GI50 [18]: 17.3 µM (inactive)
- GI50 [19]: > 100 µM (inactive)
- GI50 [20]: 56.5 µM
- GI50 [21]: 31 µM (inactive)
- GI50 [22]: > 100 µM (inactive)
- GI50 [23]: 23.2 µM (inactive)
- GI50 [24]: 19.9 µM (inactive)
- GI50 [25]: 53.1 µM (inactive)
- GI50 [26]: > 100 µM (inactive)
- GI50 [27]: 52.5 µM (inactive)
- GI50 [28]: 68.5 µM (inactive)
- GI50 [29]: > 100 µM (inactive)
- GI50 [30]: > 100 µM (inactive)
- GI50 [31]: 63 µM (inactive)
- GI50 [32]: 27 µM (inactive)
- GI50 [33]: 27.3 µM (inactive)
- GI50 [34]: 37.8 µM (inactive)
- GI50 [35]: 50.4 µM (inactive)
- GI50 [36]: 19.2 µM (inactive)
- GI50 [37]: 51.4 µM (inactive)
- GI50 [38]: 73.5 µM (inactive)
- GI50 [39]: 41.1 µM (inactive)
- GI50 [40]: 23.6 µM (inactive)
- GI50 [41]: 61 µM (inactive)
- GI50 [42]: 26.9 µM (inactive)
- GI50 [43]: 32 µM (inactive)
- GI50 [44]: 80.9 µM (inactive)
- GI50 [45]: 66.8 µM (inactive)
- GI50 [46]: 47 µM (inactive)
- GI50 [47]: 25.3 µM (inactive)
- GI50 [48]: 22.1 µM (inactive)
- GI50 [49]: 61.9 µM (inactive)
- GI50 [50]: > 100 µM (inactive)
- GI50 [51]: 28.4 µM (inactive)
- GI50 [52]: > 100 µM (inactive)
- GI50 [53]: 87.5 µM (inactive)
- GI50 [54]: > 100 µM (inactive)
- GI50 [55]: 34.4 µM (inactive)

Compound: CCOC(=O)CCC(NC(=O)c1ccc(NCc2ccc3nc(OC)c(OC)nc3c2)c2ccccc12)C(=O)OCC (stereo not given)
- GI50 [1]: > 100 µM (inactive)
- GI50 [2]: > 100 µM (inactive)
- GI50 [3]: > 100 µM (inactive)
- GI50 [4]: 71.1 µM (inactive)
- GI50 [5]: > 100 µM (inactive)
- GI50 [6]: > 100 µM (inactive)
- GI50 [7]: 73.8 µM (inactive)
- GI50 [8]: > 100 µM (inactive)
- GI50 [9]: > 100 µM (inactive)
- GI50 [10]: > 100 µM (inactive)
- GI50 [11]: 94.2 µM (inactive)
- GI50 [12]: 31 µM (inactive)
- GI50 [13]: 16.2 µM (inactive)
- GI50 [56]: 66.2 µM (inactive)
- GI50 [14]: 61.4 µM (inactive)
- GI50 [15]: > 100 µM (inactive)
- GI50 [16]: 31.8 µM (inactive)
- GI50 [17]: > 100 µM (inactive)
- GI50 [18]: 26.2 µM (inactive)
- GI50 [19]: > 100 µM (inactive)
- GI50 [57]: 58.1 µM (inactive)
- GI50 [20]: > 100 µM
- GI50 [21]: 36.2 µM (inactive)
- GI50 [23]: > 100 µM (inactive)
- GI50 [24]: 43.1 µM (inactive)
- GI50 [26]: 31 µM (inactive)
- GI50 [27]: 84.9 µM (inactive)
- GI50 [28]: > 100 µM (inactive)
- GI50 [29]: 0.0836 µM (active)
- GI50 [30]: > 100 µM (inactive)
- GI50 [31]: > 100 µM (inactive)
- GI50 [32]: > 100 µM (inactive)
- GI50 [34]: > 100 µM (inactive)
- GI50 [35]: 20.8 µM (inactive)
- GI50 [36]: 76.2 µM (inactive)
- GI50 [37]: 42.7 µM (inactive)
- GI50 [38]: > 100 µM (inactive)
- GI50 [39]: > 100 µM (inactive)
- GI50 [40]: 40.5 µM (inactive)
- GI50 [41]: > 100 µM (inactive)
- GI50 [42]: 57.5 µM (inactive)
- GI50 [43]: 38.8 µM (inactive)
- GI50 [58]: > 100 µM (inactive)
- GI50 [44]: > 100 µM (inactive)
- GI50 [45]: 55.8 µM (inactive)
- GI50 [46]: > 100 µM (inactive)
- GI50 [47]: 61.8 µM (inactive)
- GI50 [48]: 25.9 µM (inactive)
- GI50 [49]: > 100 µM (inactive)
- GI50 [50]: > 100 µM (inactive)
- GI50 [51]: > 100 µM (inactive)
- GI50 [52]: > 100 µM (inactive)
- GI50 [53]: > 100 µM (inactive)
- GI50 [54]: > 100 µM (inactive)
- GI50 [55]: > 100 µM (inactive)
